Source: PubChem BioAssay (NCI)
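Briefly, cells in 96-well plates were exposed to five compound concentrations for 48 h, and endpoints were estimated by linear interpolation. Here, GI50 denotes the concentration required for 50% inhibition of growth. TGI is the concentration that stops growth completely.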

Experiments:
Test in all cases: NCI anticancer screen, dose series, 48 h
UACC-62 melanoma = test system: UACC-62 melanoma
HT29 colon = test system: HT29 colon
KM12 colon = test system: KM12 colon
SNB-75 CNS = test system: SNB-75 CNS
K-562 leukemia = test system: K-562 leukemia
NCI-H522 lung = test system: NCI-H522 lung
U251 CNS = test system: U251 CNS
SK-OV-3 ovarian = test system: SK-OV-3 ovarian
TK-10 renal = test system: TK-10 renal
OVCAR-3 ovarian = test system: OVCAR-3 ovarian

SMILES | GI50 (UACC-62 melanoma) [µM] | TGI (UACC-62 melanoma) [µM] | GI50 (HT29 colon) [µM] | TGI (HT29 colon) [µM] | GI50 (KM12 colon) [µM] | TGI (KM12 colon) [µM] | GI50 (SNB-75 CNS) [µM] | TGI (SNB-75 CNS) [µM] | GI50 (K-562 leukemia) [µM] | TGI (K-562 leukemia) [µM] | GI50 (NCI-H522 lung) [µM] | TGI (NCI-H522 lung) [µM] | GI50 (U251 CNS) [µM] | TGI (U251 CNS) [µM] | GI50 (SK-OV-3 ovarian) [µM] | TGI (SK-OV-3 ovarian) [µM] | GI50 (TK-10 renal) [µM] | TGI (TK-10 renal) [µM] | GI50 (OVCAR-3 ovarian) [µM] | TGI (OVCAR-3 ovarian) [µM]
Cc1cc(-c2ccco2)cc(C)c1/C=C/c1cncc(-c2nn[nH]n2)c1 | > 25 | > 25 | > 25 | > 25 | > 25 | > 25 | > 25 | > 25 | > 25 | > 25 | > 25 | > 25 | > 25 | > 25 | > 25 | > 25 | > 25 | > 25 | > 25 | > 25
O=C1c2ccoc2C(=O)c2oc(=O)ccc21 | – | 31.5 | – | > 78.8 | – | > 57.7 | – | 15.6 | – | 22.4 | – | 4.18 | – | 20.8 | – | > 57.9 | – | > 59.1 | – | 8.69
CN1CC[C@]23c4c5ccc(O)c4OC2c2[nH]ncc2C[C@H]3[C@H]1C5 (stereo partly drawn) | – | > 100 | – | > 100 | – | > 100 | – | > 100 | – | > 100 | – | > 100 | – | > 100 | – | > 100 | – | > 100 | – | > 100
COc1cccc(/C=C2/S/C(=N/Nc3nc(C)c(C(C)=O)s3)NC2=O)c1O | – | 43.9 | – | > 100 | – | > 100 | – | > 100 | – | > 100 | – | 33.2 | – | 44 | – | > 100 | – | 94.2 | – | 60.3
COc1cccc(N2C(=O)C3CC(CC(C)(C)C)c4c([nH]c5ccccc45)C3C2=O)c1 (stereo not drawn) | – | > 10 | – | > 10 | – | > 10 | – | 7.04 | – | > 10 | – | > 10 | – | > 10 | – | > 10 | – | > 10 | – | > 10
COc1ccc2nc(-c3ccc(O)cc3)ccc2c1 | – | > 100 | – | > 100 | – | > 100 | – | > 100 | – | > 100 | – | > 100 | – | – | – | > 100 | – | > 100 | – | > 100
COC(=O)C1=Nc2ccc(F)cc2/C1=C/c1sc(=S)[nH]c1O | 0.248 | > 47 | 0.559 | 11.9 | 0.0734 | 10.7 | 0.0301 | 11.8 | 0.045 | > 100 | 0.0363 | 1.09 | 0.0838 | 14.2 | 0.513 | 31.3 | 0.848 | 19.3 | 0.0441 | 3.66
CC(C)(C)c1cc(C(OCCl)(C(F)(F)F)C(F)(F)F)c2c(c1)C(C(F)(F)F)(C(F)(F)F)OC21c2ccccc2C(=O)c2ccccc21 | – | – | – | > 100 | – | > 100 | – | > 100 | – | > 100 | – | > 100 | – | > 100 | – | – | – | > 100 | – | > 100
Cc1ccc(-c2nc(C(Cl)Cl)nc3cc(C)nn23)cc1 | 3.12 | > 100 | 0.458 | > 100 | – | – | 1.48 | 8.39 | 2.3 | > 100 | 2.14 | > 100 | – | – | 2.28 | 8.62 | 3.55 | > 100 | 1.47 | 3.42
COc1ncc2cc1NS(=O)(=O)c1cccc(c1)C(=O)NCC1=CC=C(S1)c1ncnc3c1SC2=C3C | 0.248 | 1.24 | 0.201 | 1.74 | 0.269 | 1.34 | 0.0176 | 2.26 | 0.596 | > 100 | 0.467 | 2.61 | 0.17 | 2.03 | 0.378 | 4.07 | 0.51 | 10.4 | 0.115 | 0.431
CCN(CC)C(=O)CCCCCn1c2ccccc2c2c3c(c4c5ccccc5[nH]c4c21)C(=O)N(O)C3=O | 4.1 | 20.1 | 2.22 | 4.44 | 3.31 | 14.7 | 7.71 | > 100 | 4.18 | > 100 | 1.41 | 3.13 | 1.96 | 3.78 | 22.2 | 92.1 | 3.64 | 64 | – | –
CCC1=C(c2ccc(OC)cc2)CC[C@]2(CCNC2=O)[C@@H]1C | – | 67.1 | – | 59.6 | – | > 91.7 | – | > 95.6 | – | 48.7 | – | 56.3 | – | 86.4 | – | 97.1 | – | > 100 | – | 61.4
Cc1cc2c3c(c1)CCCN3CCC2 | – | > 10 | – | > 10 | – | > 10 | – | > 10 | – | > 10 | – | > 10 | – | > 10 | – | > 10 | – | > 10 | – | > 10
O=C(/C=C/c1cccs1)c1ccc([N+](=O)[O-])cc1 | – | > 100 | – | > 100 | – | > 100 | – | > 100 | – | > 100 | – | – | – | > 100 | – | > 100 | – | > 100 | – | –
Nc1ncnc2c1ncn2CCOC(c1ccccc1)P(=O)(O)O (stereo not drawn) | – | > 100 | – | > 100 | – | > 100 | – | > 100 | – | – | – | > 100 | – | > 100 | – | > 100 | – | > 100 | – | > 100
O=C(CCC(=O)C1Cc2ccccc2C1=O)Nc1cccc(C(F)(F)F)c1 (stereo not drawn) | – | > 100 | – | > 100 | – | > 100 | – | – | – | > 100 | – | – | – | > 100 | – | > 100 | – | > 100 | – | > 100
CC(=O)c1c(O)c2c([nH]c1=O)CCCC2 | – | 43.3 | – | > 100 | – | – | – | 29 | – | > 100 | – | – | – | 60.9 | – | 48.5 | – | > 100 | – | > 100
CCOC(=O)COc1cccc2occc(=O)c12 | – | > 100 | – | > 100 | – | > 100 | – | – | – | > 100 | – | > 100 | – | > 100 | – | > 100 | – | > 100 | – | > 100
